Results on three compounds are retold here after paper PMC11887451, “Leveraging Immunogenic Cell Death to Enhance the Immune Response against Malignant Pleural Mesothelioma Tumors” (Journal of the American Chemical Society, 2025).

Data set [1] has as its system human malignant mesothelioma cell line LO68. In words: MTT cytotoxicity assay, 72 h, LO68. Conditions: exposure time 72 h. The data set is classed as cell-based. For orientation: Formazan colour is commonly taken as a measure of viable cells.
Excerpt: (§1) Human malignant mesothelioma cancer cell lines JU77 and LO68 were obtained from Cell Bank Australia (Children's Medical Research Institute, Westmead, Australia). Mouse malignant mesothelioma cancer cell line AB12, human nonmalignant mesothelioma cancer cell line Met5A (mesothelial cells), mouse macrophage cell line J774 and human monocytic cell line THP-1 were obtained from American Type Culture Collection (ATCC) (Rockville, MD, USA). Human malignant mesothelioma cell lines VMC23 (epithelial), Meso82 (sarcomatous), Meso92 (biphasic), were kindly provided by Prof. Walter Berger (Medical University of Vienna). All cells except for J774 were cultured in RPMI and J774 cells were cultured in DMEM. Both types of media were supplemented with 10% FBS and 1% penicillin-streptomycin (10,000 U/mL). Cells were grown in tissue culture flasks (75 cm2 and 25 cm2, SPL Life Sciences Co., Ltd., Korea). All cell lines were grown at 37 °C in a humidified atmosphere of 95% air and 5% CO 2 and passaged when they reached 80–90% confluency. All Au stock solutions were prepared in 1% DMSO in the respected medium, ensuring that cell viability was not inhibited.
(§2) The cytotoxicity of compounds was determined using an MTT colorimetric test. The cells were harvested from culture flasks by trypsinization and seeded into Cellstar 96 -well microculture plates (Greiner Bio -One) at the seeding density of 6000 cells per well (6 × 10^4 cells/mL). After
(§3) the cells were allowed to resume exponential growth for 16 h, they were exposed to drugs at
(§4) different concentrations in media for 72 h. The drugs were diluted in a complete medium at the desired concentration added to each well (100 μL) and serially diluted in other wells. After exposure for 72 h, the media was replaced with MTT in media (5 mg/mL, 100 μL/well) and
(§5) incubated for an additional 50 min. Subsequently, the medium was aspirated, and the purple formazan crystals formed in viable cells were dissolved in DMSO (100 μL/well). Optical densities were measured at 570 nm using a BioTek Synergy H1 microplate and MultiskanTM SkyHigh plate readers. The quantity of viable cells was expressed in terms of treated/control (T/C) values in comparison to untreated control cells, and 50% inhibitory concentrations (IC 50) were calculated from concentration-effect curves by interpolation. An evaluation was based on means from at least three independent experiments, each comprising three replicat es per
The conditions of data set [2]: determined from retention time using RP-HPLC.
Data set [3] deals with human nonmalignant mesothelioma cell line Met5A. The data set can be described thus: MTT cytotoxicity assay, 72 h, Met5A. The data set is classed as cell-based. Conditions: exposure time 72 h.
Excerpt: Cell lines and culture conditions
Mouse malignant mesothelioma cancer cell line AB12, human nonmalignant mesothelioma cancer cell line Met5A (mesothelial cells), mouse macrophage cell line J774 and human monocytic cell line THP-1 were obtained from American Type Culture Collection (ATCC) (Rockville, MD, USA). Human malignant mesothelioma cell lines VMC23 (epithelial), Meso82 (sarcomatous), Meso92 (biphasic), were kindly provided by Prof. Walter Berger (Medical University of Vienna). All cells except for J774 were cultured in RPMI and J774 cells were cultured in DMEM. Both types of media were supplemented with 10% FBS and 1% penicillin-streptomycin (10,000 U/mL). Cells were grown in tissue culture flasks (75 cm2 and 25 cm2, SPL Life Sciences Co., Ltd., Korea). All cell lines were grown at 37 °C in a humidified atmosphere of 95% air and 5% CO 2 and passaged when they reached 80–90% confluency. All Au stock solutions were prepared in 1% DMSO in the respected medium, ensuring that cell viability was not inhibited. The Au concentration in the stock solutions was confirmed through inductively coupled plasma optical emission spectrometry. The stock solution of pemetrexed (10 mM) was prepared in Milli -Q water.
Inhibition of c ell viability assay
as §2, §3, §4, §5
The test system of data set [4] is patient-derived Meso92 cell line (biphasic MPM). In words: MTT cytotoxicity assay, 72 h, Meso92. The data set is classed as cell-based, human. As to conditions: exposure time 72 h.
Data set [5] relates to patient-derived Meso84 cell line (sarcomatoid MPM). In words: MTT cytotoxicity assay, 72 h, Meso84. Format: cell-based, human. Conditions: exposure time 72 h.
The subject of data set [6] is patient-derived VMC23 cell line (epithelioid MPM). In words: MTT cytotoxicity assay, 72 h, VMC23. The data set is classed as cell-based, human. Conditions: exposure time 72 h.
Excerpt: as §1, §2, §3, §4, §5
The subject of data set [7] is human malignant mesothelioma cell line JU77. In words: MTT cytotoxicity assay, 72 h, JU77. Conditions: exposure time 72 h. The data set is classed as cell-based.
Excerpt: as §1, §2, §3, §4, §5
Data set [8] relates to murine malignant mesothelioma cell line AB12. The data set can be described thus: MTT cytotoxicity assay, 72 h, AB12. As to conditions: exposure time 72 h. The data set is classed as cell-based, mouse.
Excerpt: as §1, §2, §3, §4, §5
The test system of data set [9] is AB12 cells phagocytosed by J774 macrophages. In words: Phagocytosis assay, flow cytometry. The data set is classed as cell-based, mouse. Conditions: AB12 treated 100 min at 5 × IC50 (72 h), 16 h with J774 macrophages. As for the experimental part:
page 21: incubated for an additional 50 min. Subsequently, the medium was aspirated, and the purple formazan crystals formed in viable cells were dissolved in DMSO (100 μL/well). Optical densities were measured at 570 nm using a BioTek Synergy H1 microplate and MultiskanTM SkyHigh plate readers. The quantity of viable cells was expressed in terms of treated/control (T/C) values in comparison to untreated control cells, and 50% inhibitory concentrations (IC 50) were calculated from concentration-effect curves by interpolation. An evaluation was based on means from at least three independent experiments, each comprising three […] concentration level. For macrophage analyses, the acute monocytic leukemia -derived THP-1 cell line (ATCC) was used as a model. 1 × 104 THP-1 cells were seeded per well in 96-well plates in RPMI-1640 with 10% FCS and treated for 24 h with 75 nM phorbol 12-myristate 13-acetate (PMA, Sigma- Aldrich) to induce M0 macrophage differentiation. After the differentiation period, PMA was replaced by fresh culture medium to recover for 2h. Afterwards increasing concentrations of 1G, 5A, 5B and 5G were added for a 72-h continuous drug exposure assay. In parallel, the […] were allowed to attach for 24 h. Gold compounds were added to the cells as described for the THP-1 model above. After the incubation period of 72 h, cell viability was determined by an MTT-based assay (EU4U, Biomedica) following the instructions of the manufacturer. DMSO had not impact on the cell viability at the concentrations used. Flow cytometry experiments Phagocytosis assay […] with RPMI, centrifuged (300 × g, 5 min) and labelled with CellTracker Red CMTPX Dye (0.72 μM for 5 × 10^5 cells) at 37°C for 30 minutes in 1 ml of serum -free RPMI. Following S21 page 22: centrifugation of the cells (300 × g, 5 min), 5 ml of fresh RPMI was introduced, and the cells were seeded at a density of 5 x 10^5 cells per well into Cellstar 6-well plates (Greiner Bio-One) (1 ml per well). J774 macrophages (70-80% confluence in a T75 flask) were detached by scraping, centrifuged (300 × g, 5 min). The medium was substituted with 1 ml of DMEM containing CellTracker Green CMFDA (1 μM) and the J774 macrophages were stained at 37°C for 30 minutes. Following centrifugation of the J774 macrophages (300 × g, 5 min), 5 ml of fresh DMEM was introduced, and the macrophages were seeded into a 100 cm2 petri dish (SPL Life Sciences, Korea). After 24 h, the media in AB12 cells was replaced with 1 ml of fresh […] for 100 minutes. After removing the drug-containing media, the cells were trypsinized (0.5 ml), neutralized with 1 ml of RPMI, centrifuged (300 × g, 5 min) and counted. From each sample, […] cells into 6-well plates. AB12 cells and J774 macrophages were co-incubated for 16 h at 37°C and 5% CO2, detached by scraping, centrifuged (300 × g, 5 min), and the pellets were resuspended in PBS for immediate analysis using a CytoFLEX Flow Cytometer (Beckman Coulter, USA). The percentage of phagocytosis was determined by calculating the number of double-positive macrophages (Q2) over the total number of macrophages (Q2 + Q3). […] Annexin V/PI assay AB12 cells were seeded into Cellstar 6-well plates (Greiner Bio-One) at a density of 5 × 10^5 cells/well (1 ml per well). […] The medium was removed and cells were washed with PBS (2 × 1 mL). Afterwards the cells were […] S22
For orientation: In flow cytometry, cells or beads pass a laser one at a time.

Another data set deals with AB12 cells. In words: Annexin V/PI assay (necrosis), flow cytometry. Format: cell-based, mouse. Conditions: AB12, 5 × IC50 (72 h), short exposure. How it is done: centrifugation of the cells (300 × g, 5 min), 5 ml of fresh RPMI was introduced, and the cells were seeded at a density of 5 x 10^5 cells per well into Cellstar 6-well plates (Greiner Bio-One) (1 ml per well). J774 macrophages (70-80% confluence in a T75 flask) were detached by scraping, centrifuged (300 × g, 5 min). The medium was substituted with 1 ml of DMEM containing CellTracker Green CMFDA (1 μM) and the J774 macrophages were stained at 37°C for 30 minutes. Following centrifugation of the J774 macrophages (300 × g, 5 min), 5 ml of fresh DMEM was introduced, and the macrophages were seeded into a 100 cm2 petri dish (SPL Life Sciences, Korea). After 24 h, the media in AB12 cells was replaced with 1 ml of fresh RPMI containing compounds of interest at equipotent concentration of 5 × IC50 and incubated for 100 minutes. After removing the drug-containing media, the cells were trypsinized (0.5 ml), neutralized with 1 ml of RPMI, centrifuged (300 × g, 5 min) and counted. From each sample, 2 × 10^5 AB12 cells were seeded into Cellstar 6-well plates (Greiner Bio-One) (1 ml per well).
2 × 10^5 J774 macrophages were detached from a petri dish by scraping and added to AB12 cells into 6-well plates. AB12 cells and J774 macrophages were co-incubated for 16 h at 37°C and 5% CO2, detached by scraping, centrifuged (300 × g, 5 min), and the pellets were resuspended in PBS for immediate analysis using a CytoFLEX Flow Cytometer (Beckman Coulter, USA). The percentage of phagocytosis was determined by calculating the number of double-positive macrophages (Q2) over the total number of macrophages (Q2 + Q3). Dot plots […]
analysis of the flow cytometry data. […]
concentrations for 100 min at 37 °C. […] Cell death was evaluated by flow cytometry using a CytoFLEX Flow Cytometer equipped with a 488 nm laser and a 638 nm laser (Beckman Coulter, Brea, CA, USA). The cells were excited by the 488 nm laser, and fluorescence emissions were detected at 525/40 nm for FITC (Annexin V) and at 610/20 nm for ECD (PI).
The percentage of necrosis was determined by calculating the sum of cells in Q1 and Q2. […]

The test system of data set [10] is calreticulin (CRT) in AB12 cells. In words: CRT detection, flow cytometry. The data set is classed as cell-based, mouse. As to conditions: AB12, 5 × IC50 (72 h), 120 min. How it is done: page 23: concentrations for 100 min at 37 °C. After the treatment, the supernatant was collected in 2 mL microtubes, centrifuged (300 × g, 5 min) and the media was removed. The adherent cells were then trypsinized with 500 μL of trypsin at 37 °C for 5 min. Next, 1 mL of medium was added to neutralize trypsin and the resulting cell suspension was combined with the supernatant. The wells were washed with 200 μL of PBS, which was also combined with the supernatant. The combined solutions were centrifuged (300 × g, 5 min), and the resulting pellets were washed with PBS (2 × 1 mL) and resuspended in 200 μL of Annexin V binding buffer. […] Cell death was evaluated by flow cytometry using a CytoFLEX Flow Cytometer equipped with a 488 nm laser and a 638 nm laser (Beckman Coulter, Brea, CA, USA). The cells were excited by the 488 nm laser, and fluorescence emissions were detected at 525/40 nm for FITC (Annexin V) and at 610/20 nm for ECD (PI). […] The percentage of necrosis was determined by calculating the sum of cells in Q1 and Q2. […] Next, cells were incubated with CRT antibody conjugated with AlexaFluor S23 page 24: 488 (62304S, Cell Signaling Technology) at 4 °C overnight, washed twice with PBS, reconstituted in 500 µL of PBS and analyzed by flow cytometry using a CytoFLEX Flow Cytometer equipped with a 488 nm laser and a 638 nm laser (Beckman Coulter, Brea, CA, USA). […]

Another data set relates to BALB/c mice. Conditions: i.p., 12 injections, 5F 2.5 mg/kg.

One may read the IC50 as the concentration needed to halve the response being measured. The low end stands for higher potency, the high end for lower potency. For orientation: LogP means a log measure of how a compound divides between an organic and an aqueous phase. A low value points to a more hydrophilic compound.

SMILES strings stand for the structures.

For the compound `F[P-](F)(F)(F)(F)F.c1cc[c]2c(c1)-c1cccc[n+]1[Au-]21[S]C(=[N+]2CCCCC2)[S]1` (stereo not shown) [1H], the IC50 in [1] came to 370 ± 100 nM; in data set [3], 130 ± 30 nM; in [4], 1100 ± 100 nM; in [5], 700 ± 90 nM; in data set [6], 1400 ± 100 nM; in data set [7], 620 ± 120 nM. Also, in data set [8], the IC50 worked out at 91 ± 18 nM. The LogP in data set [2] is 2.45. In addition, the “phagocytosis / ICD response (in words)” value in data set [9] was “high levels of phagocytosis”. In addition, the “necrotic cell death (in words)” value in the data set on AB12 cells is “did not result in significant necrotic cell death”.

Consider `N.N.[Cl][Pt][Cl]` [Cisplatin, cisplatin, reference compound], for which the IC50 in data set [1] was found to be 20000 ± 6000 nM; in data set [3] it was 2000 ± 500 nM; in data set [4] it was 4000 ± 900 nM; in [5], 17000 ± 2000 nM; in data set [6], 3600 ± 1000 nM; in [7] it was 4200 ± 500 nM. It took 4500 ± 800 nM to reach half-maximal inhibition in data set [8] (IC50). Moreover, the “CRT expression (in words)” value in data set [10] is “no changes in CRT expression”. In addition, the “phagocytosis / ICD response (in words)” value in [9] is “failed to initiate any ICD response”.

Take `F[P-](F)(F)(F)(F)F.c1cc[c]2c(c1)Nc1cccc[n+]1[Au-]21[S]C(=[N+]2CCCCC2)[S]1` (stereo not shown) [5H]: the IC50 was 440 ± 90 nM in data set [1]; 130 ± 10 nM in [3]; 820 ± 180 nM in data set [4]; 100 ± 20 nM in data set [5]; 940 ± 270 nM in data set [6]; 400 ± 90 nM in [7]. Moreover, in data set [8], the IC50 was determined as 100 ± 10 nM. The “signs of toxicity, daily injections” value in the data set on BALB/c mice (5A and 5H 4 mg/kg) was “led to toxicity in mice”. Also, the “deaths, daily injections” value in the data set on BALB/c mice (5H 4 mg/kg) was “death of two mice”.
